Results reported in patent US20090197279A1, “MICROTUBULE SYNTHESIS AS A BIOMARKER” (KINEMED, INC., priority 2005, published 2009).
Entries after “also recorded” stand apart in the source; their conditions may differ.

How the values were obtained:
microtubule polymer = assay: Total abundance of microtubule polymer by Western blotting after CFC; type: in vivo, mouse; details: conditioned mice, nocodazole 0.2 mg/kg; data not shown
Text: Tubulin was purified using minor modifications of protocols described previously (Fanara, P., Oback, B., Ashman, K., Podtelejnikov, A., Brandt, R. Identification of MINUS, a small polypeptide that functions as a microtubule nucleation suppressor. EMBO J. 18, 565-577 (1999); Fanara, P. et al. In vivo measurement of microtubule dynamics using stable isotope labeling with heavy water. Effect of taxanes. J. Biol. Chem. 279, 49940-49947 (2004). Briefly, cultured neurons were gently scraped off culture plates, washed in phosphate-buffered saline (PBS), and homogenized in microtubule-stabilizing buffer. […] The relative abundance of tubulin in each preparation (Tubulin dimers and TAU5-bound, MAP2-bound, and unbound microtubule fractions) was quantified by Western blot, and tubulin from these fractions was further purified by ion exchange and size exclusion chromatography, as previously described (Fanara, P. et al. In vivo measurement of microtubule dynamics using stable isotope labeling with heavy water. Effect of taxanes. J. Biol. Chem. 279, 49940-49947 (2004)).
To test the role of microtubule/tubulin exchange in hippocampus-dependent memory, we treated animals with nocodazole (0.2 mg/kg), a microtubule-depolymerizing agent, four hours prior to CFC training (FIG. 10A). […] The total abundance of microtubule polymer, as detected by Western blotting, was decreased as well (data not shown).

C57BL/6JBomTac mice = assay: Contextual fear conditioning (CFC), freezing behavior; type: in vivo, mouse
Text: FIG. 10 depicts microtubule/tubulin exchange during hippocampus-dependent contextual memory. (A) Protocol for measurement of microtubule/tubulin exchange during contextual fear conditioning (CFC). Tubulin dimers and microtubules subsets were labeled to plateau through continuous ^2H2O labeling, starting one day before CFC training. Labeling was continued throughout CFC training (Day 2) and the contextual conditioning test until mice were euthanized (Day 3). Vehicle or nocodazole treated-mice were injected 4 hours before CFC training, consisting of three pairings of conditioned and unconditioned stimuli inside an observation chamber, as described in Example 7 below. […] Microtubule subpopulations were fractionated as described below, and the percentage of newly synthesized tubulin was quantified by GC/MS (mean±SD, n=3). […]
Fear conditioning experiments were done as previously described (Bourtchouladze, R. et al. Different training procedures recruit either one or two critical periods for contextual memory consolidation, each of which requires protein synthesis and PKA. Learn. Mem. 5, 365-374 (1998)). […] On day later, contextual conditioning was assessed for 3 consecutive minutes in the chamber in which the mice were trained (CFC test). […]

Compound: COC(=O)Nc1nc2ccc(C(=O)c3cccs3)cc2[nH]1 [nocodazole]
- total abundance of microtubule polymer (Western blotting) (microtubule polymer): decreased
- freezing behavior (% of freezing to context), CFC test (C57BL/6JBomTac mice; nocodazole 0.2 mg/kg i.p. 4 hours before CFC training, test one day after training, vs vehicle-treated mice): significant reduction; also recorded: significantly lower
- contextual fear responses measured immediately after training (C57BL/6JBomTac mice; nocodazole vs vehicle, data not shown): similar
